The source of these data is patent publication US8501910B2, “Protein sweetener” (Wisconsin Alumni Research Foundation, priority 2007, dated 2013).

The subject of the experiment is humans. Kind of experiment: Human taste panel scoring sweetness on a magnitude labeled scale. In kind it is in vivo. To be noted: for sweetness potency: FIG. 1, human taste panel, varied concentrations diluted in water, compared for the weight being tested. From the text: To test the sweetness potency of our peptides we tested human perception of sweetness against known controls using varied concentrations of the protein (or other substance) being diluted in water. In the taste panel, humans were requested to score the sweetness sensations of the stimuli with a magnitude labeled scale in accordance with the techniques of B. Green et al., 21 Chemical Senses 323 (1996) (e.g. barely detectable; weak; moderate; strong; very strong; strongest imaginable).
We first gave those testers a sample of pure water with 2-10% sucrose as a calibration exercise two hours before protein testing. After the sucrose testing, they rinsed their mouth out thoroughly. The normal protocol included applying about 125 μI of the substance being tasted to the tongue, with the tested material kept in the mouth for about a minute.

As to “SEQ ID NO. 4: Brazzein variant with tyrosine at position 53 of SEQ ID NO: 1 replaced by another amino acid (probably Phe) (DKCKKVYENYPVSKCQLANQCNYDCKLKKHARSGECFYDEKRNLQCICDYCEF)”, the “sweetness potency (individual observer)” value (tested by one individual observer, not a complete panel) is “results similar to those for SEQ ID NO.5”.
For the substance “SEQ ID NO. 5: Brazzein variant Y53W: tyrosine at position 53 of SEQ ID NO: 1 replaced (DKCKKVYENYPVSKCQLANQCNYDCKLKKHARSGECFYDEKRNLQCICDYCEW)”, the sweetness potency result was “significantly higher sweetness potency than either sucrose or wild type Brazzein”.
The same measure, in the same setting: to “SEQ ID NO. 6: Brazzein variant Y53H: tyrosine at position 53 of SEQ ID NO: 1 replaced (DKCKKVYENYPVSKCQLANQCNYDCKLKKHARSGECFYDEKRNLQCICDYCEH)” belongs “significantly higher sweetness potency than sucrose”; to “SEQ ID NO. 7: Brazzein variant with Ile Ile inserted at the N terminus of wild type Brazzein (IIDKCKKVYENYPVSKCQLANQCNYDCKLNKHARSGECFYDEKRNLQCICDYCEY)”, “significantly higher sweetness potency than either sucrose or wild type Brazzein”.
On to “SEQ ID NO. 8: Brazzein variant with Gly Pro inserted at the N terminus of wild type Brazzein (GPDKCKKVYENYPVSKCQLANQCNYPCKLNKHARSGECFYDEKRNLQCICDYCEY)”, for which the sweetness potency entry is listed as “significantly higher sweetness potency than either sucrose or wild type Brazzein”.
